Measured values: US20050072047A1, “Tobacco having reduced nicotine and nitrosamines” (priority 2002, published 2005)
Where two headings read alike, the source gives them in different places.

Legend:
tobacco plants [1] = test: Nicotine and TSNA levels of field tobacco plants contacted with the compound, versus untreated plants; format: in vivo; conditions: compared to untreated tobacco plants
Method: To reduce the level of nicotine and/or nitrosamine in a cultivated crop or field of tobacco, a concentrated solution of 2,4-D in water (e.g., a 10% solution) with the wetting agent “Agral 60” (e.g., a 0.0006% v/v miscible oil emulsion) is prepared. A control solution containing the wetting agent without 2,4-D is also prepared. These solutions are diluted to 0.1, 1, 10, or 100 ppm of 2,4-D in the final spray solution. Control and experimental fields of tobacco (e.g., Burley, Virginia Flue, and Oriental varieties in separate test plots cultivated by conventional techniques for the particular varieties) at various ages of maturity (some of which have been topped) are sprayed with parallel dilutions of the wetting agent alone. Plants are then sprayed with the above solutions to the dripping-off point. Plants are allowed to continue growing normally for 14 days. Plants are then harvested and sample leaves (from the same position on the plants of the same age) are quick-frozen using liquid nitrogen. Nicotine levels are measured on these sample leaves using standard techniques.
A quick drying curing technique or a conventional curing technique particular to the variety being tested is employed to obtain cured leaves (non-green or yellow dried leaves). Conventional TSNA analysis is then performed on the cured leaves and stems and/or portions thereof (e.g., lamina and midrib of the leaf). By following this approach, the amount of 2,4-D to apply to a specific variety of tobacco, for a specific age of plant (topped or not topped) in the field to achieve a reduced nicotine and/or nitrosamine level is readily determined. In the following example, ethylene precursors, such as ethephon, are used to decrease jasmonate-induced nicotine and/or nitrosamine levels in tobacco.

tobacco plants [2] = conditions: early flowering stage; Fung et al. 1973; cited from earlier work
[3] = tested on: jasmonic acid levels in plants; conditions: Schweizer et al. 1997; cited from earlier work
lipoxygenase [4] = conditions: potato; Kolomiets et al. 2001; cited from earlier work
lipoxygenase [5] = conditions: soybean; Creelman 1992; cited from earlier work

Row | SMILES | level of TSNAs in treated tobacco plants (tobacco plants [1]) | level of nicotine in treated tobacco plants (tobacco plants [1]) | harm to tobacco plants (tobacco plants [2]) | effect on jasmonic acid levels in plants [3] | effect on lipoxygenase activity (lipoxygenase [4]) | effect on lipoxygenase activity (lipoxygenase [5])
1 | O=C(O)COc1ccc(Cl)cc1Cl [2,4-D, 2,4-Dichlorophenoxyacetic acid] | reduced levels | reduced levels | most harmful to tobacco plants during the early flowering stage |  |  | 
2 | O=C(O)c1ccccc1O [salicylic acid, 2-hydroxybenzoic acid] | reduced amount | reduced amount |  |  |  | 
3 | Clc1ccc(N2N=N[C@@H]3[C@@H]4C[C@@H]([C@H]5N=N[C@@H]45)[C@@H]32)cc1 [tetcyclacis] | reduced amount | reduced amount |  | inhibit jasmonic acid levels |  | 
4 | COc1ccc2cc([C@H](C)C(=O)O)ccc2c1 [Naproxen] |  |  |  |  | inhibit lipoxygenase activity | inhibit lipoxygenase activity
